From patent US9745339B2 (GRAFFINITY PHARMACEUTICALS GMBH, priority 2012, dated 2017)
pKd: −log10 of the molar value.

Experiments:
Bevacizumab [1] = biological target: T1, Bevacizumab (Homo sapiens, UniProt P01857); assay: Microtiter plate chromatography of resins: binding and elution of Bevacizumab
T1 construct: 0.5 mg/ml IgG in PBS pH 7.3; ligand immobilized on SEPHAR; Bevacizumab Yield; other: mass eluted (glycine pH 2.5) / mass injected; kd (dissociation constant, Langmuir isotherm); other: Bevacizumab 0.05-5 mg/ml in PBS pH 7.3, 25° C., at least 3 h; qm (maximum capacity); other: mg Bevacizumab per ml of resin; Langmuir isotherm; t0; fused on or other part: Humanized anti-VEGF-A VH domain joined N-terminally to the IGHG1 constant region (engineered, no UniProt entry)
Procedure: (§1) Resins were assessed in packed mode by microtiter plate chromatography. For each column, approximately 30 μl of resin were transferred to a 384-well filter plate and sealed with appropriate top fits. Columns with rProtein A SEPHAROSE 4 FF and MABSORBENT A2P HF were included as controls.
(§2) Either 3.3 cv of whole IgGs dissolved at 0.5 mg ml^−1 in PBS or undiluted host cell proteins (HCP) were injected onto columns.
(§3) Unbound protein was washed from columns with 5 cv of PBS prior to elution with 5 cv of glycine buffer at pH 2.5. […] During injection of samples, speed was reduced to 10 g and centrifugation time increased to 5-10 min. Effluent fractions were collected in 384-well plates and concentrations of protein were analyzed by Bradford assay. Protein masses mi, mft and me (see below) were calculated as the product of fraction volume and measured protein concentration.
(§4) The fraction of bound protein was calculated as the difference between the total mass of protein injected mi and the mass of protein detected in the flowthrough mft, divided by the total mass of protein injected.
(§5) The yield of protein was calculated as the mass of protein eluted me, divided by the mass of protein injected mi.
(§6) The selectivity of resins was calculated as the fraction of bound Bevacizumab antibody BAb, divided by the fraction of bound host cell proteins BHCP.
(§7) The fraction of bound protein and the yield of protein were calculated for each resin based on data for whole IgG-antibodies. In the case of host cell proteins, only the fraction of bound protein is given. Selectivity of resins was calculated from data for Bevacizumab whole IgG and host cell proteins. Due to limited experimental precision, selectivity was truncated for values beyond 10.

Bevacizumab [2] = assay: as above; conditions: fraction of bound Bevacizumab divided by fraction of bound HCP; truncated for values beyond 10
Procedure: as §1, §2, §3, §4, §5, §6, §7

Tocilizumab = assay: Microtiter plate chromatography of resins: binding and elution of Tocilizumab
Procedure: as §1, §2, §3, §4, §5, §7

Palivizumab = assay: Microtiter plate chromatography of resins: binding and elution of Palivizumab
Procedure: as §1, §2, §3, §4, §5, §7

Cetuximab = assay: Microtiter plate chromatography of resins: binding and elution of Cetuximab
Procedure: as §1, §2, §3, §4, §5, §7

[3] = test system: poly-IgG from human serum (h-poly-IgG); assay: Microtiter plate chromatography of resins: binding and elution of human poly-IgG
Procedure: as §1, §2, §3, §4, §5, §7

host cell proteins (HCP) = assay: Microtiter plate chromatography of resins: binding of host cell proteins; set-up: species or system CHO cell culture
Procedure: Flowthrough from protein A chromatography (referred to as host cell proteins) was derived from the supernatant of antibody-producing CHO cell culture in serum-free medium. Coomassie brilliant blue dye reagent for Bradford assay was purchased from Thermo Scientific (Bonn/Germany).
as §1, §2, §3, §4, §7

Bevacizumab [4] = biological target: T1, Bevacizumab; assay: Langmuir isotherms by batch adsorption; type: binding; conditions: read-out: kd (dissociation constant, Langmuir isotherm); Bevacizumab 0.05-5 mg/ml in PBS pH 7.3, 25° C., at least 3 h
Procedure: Experiments were performed with Bevacizumab as antibody. Parameters of Langmuir isotherms for purified antibody were determined by batch adsorption experiments in 96-well microtiter plates. In each well, 10 μl of sorbent slurry (50% v/v) were mixed with 100 μl of protein solution. Initial concentrations varied from 0.05-5 mg/ml in phosphate-buffered saline (0.15 M NaCl, 20 mM phosphate buffer, pH 7.3; PBS). Reactions were agitated vigorously at 25° C. for at least 3 h. Afterwards, antibody concentration in the supernatants were measured by Bradford assay. Data was evaluated by direct fitting of the values with the Langmuir isotherm equation (1).
Parameters of Langmuir isotherms, i.e. dissociation constants Kd and maximum capacities qm, were determined from the measured concentrations in the supernatants. Parameters were estimated by numerical fitting of the model equation derived by Chase (1)

[5] = fraction of injected protein bound, 0.5 mg/ml IgG in PBS pH 7.3, ligand immobilized on SEPHAROSE 4 FF
[6] = mass eluted (glycine pH 2.5) / mass injected
[7] = fraction of injected protein bound, 0.5 mg/ml IgG in PBS pH 7.3
[8] = fraction of injected undiluted host cell proteins bound
[9] = L55-73: estimated values based on the knowledge obtained from L01-L54

| Structure (SMILES) | Bevacizumab Bound (Bevacizumab [1]; [5]) [%] | Bevacizumab Yield (Bevacizumab [1]; [6]) [%] | Selectivity (Bevacizumab [2]) | Tocilizumab Bound (Tocilizumab; [7]) [%] | Palivizumab Bound (Palivizumab; [7]) [%] | Cetuximab Bound (Cetuximab; [7]) [%] | h-poly-IgG Bound [3, 7] [%] | HCP Bound (host cell proteins (HCP); [8]) [%] | pKd (Bevacizumab [4]) | Bevacizumab Bound (Bevacizumab [1]; [9]) [%] | Bevacizumab Yield (Bevacizumab [1]; [9]) [%] | Tocilizumab Bound (Tocilizumab; [9]) [%] | Palivizumab Bound (Palivizumab; [9]) [%] | Cetuximab Bound (Cetuximab; [9]) [%] | h-poly-IgG Bound [3, 9] [%] | HCP Bound (host cell proteins (HCP); [9]) [%] |
| --- | --- | --- | --- | --- | --- | --- | --- | --- | --- | --- | --- | --- | --- | --- | --- | --- |
| NCCCNc1ccc(C(=O)Nc2nnc(-c3ccco3)s2)cc1[N+](=O)[O-] [Ligand L18, 4-[(3-Amino-1-propyl)amino]-3-nitrobenzoic acid N-[5-(2-furyl)-1,3,4-thiadiazol-2-yl]amide] | 100 | 102 | 3.4 | 100 | 100 | 100 | 100 | 29 |  |  |  |  |  |  |  |  |
| NCCCn1cnc2cc(C(=O)Nc3nnc(-c4ccncc4)s3)ccc21 [Ligand L21, 1-(3-Amino-1-propyl)benzimidazole-5-carboxylic acid N-[5-(4-pyridyl)-1,3,4-thiadiazol-2-yl]amide] | 100 | 100 | 10.0 | 98 | 85 | 100 | 82 | 2 |  |  |  |  |  |  |  |  |
| CCSc1nnc(NC(=O)c2ccc3c(c2)ncn3CCCN)s1 [Ligand L12, 1-(3-Amino-1-propyl)benzimidazole-5-carboxylic acid N-(2-ethylthio-1,3,4-thiadiazol-5-yl) amide] | 100 | 104 | 2.5 | 100 | 100 | 100 | 100 | 40 |  |  |  |  |  |  |  |  |
| NCCCn1cc(-c2ccc(C(=O)Nc3nnc(-c4ccco4)s3)cc2)nn1 [Ligand L48] | 100 |  |  |  |  |  |  |  | 3.15 |  |  |  |  |  |  |  |
| Cn1nc(NC(=O)c2ccc3c(c2)nnn3CCCN)c2ccccc21 [Ligand L06, 1-(3-Amino-1-propyl)benzotriazole-5-carboxylic acid N-(1-methylindazol-3-yl) amide] | 100 | 84 | 3.2 |  | 74 |  |  | 31 |  |  |  |  |  |  |  |  |
| NCCCn1cnc2cc(C(=O)Nc3nccs3)ccc21 [Ligand L16, 1-(3-Amino-1-propyl)benzimidazole-5-carboxylic acid N-(thiazol-2-yl) amide] | 100 | 96 | 2.7 | 100 | 87 | 100 | 88 | 37 |  |  |  |  |  |  |  |  |
| NCCCn1cnc2cc(C(=O)Nc3nc4ccccc4o3)ccc21 [Ligand L08, 1-(3-Amino-1-propyl)benzimidazole-5-carboxylic acid N-(benzoxazol-2-yl) amide] | 100 | 100 | 2.6 | 100 | 91 | 100 | 95 | 39 |  |  |  |  |  |  |  |  |
| Cn1nc(C(=O)Nc2ccc3c(c2)C(=O)N(CCCN)CCO3)c2ccccc21 [Ligand L03, 4-(3-Amino-1-propyl)-7-[(1-methylindazol-3-yl)carboxamido]-2,3,4,5-tetrahydrobenzo[f][1,4]oxazepin-5-one] | 100 | 92 | 2.2 | 99 | 78 | 99 |  | 45 |  |  |  |  |  |  |  |  |
| Cc1nc2cc(C(=O)Nc3nnc(-c4ccoc4)s3)ccc2n1CCCN [Ligand L61, 1-(3-Amino-1-propyl)-2-methylbenzimidazole-5-carboxylic acid N-[5-(3-furyl)-1,3,4-thiadiazol-2-yl] amide] |  |  |  |  |  |  |  |  |  | 100 | >80 | >95 | >80 | 100 | >80 | <40 |
